Experimental data from patent US20230143612A1 (Arbutus Biopharma Corporation, priority 2020, published 2023).
pIC50: −log10 of the molar value.

molecular target: PD-L1 His protein / PD-1 Fc protein (Homo sapiens, UniProt Q9NZQ7); test: HTRF Assay (PD-1/PD-L1 interaction); type: binding; details: PD-L1 His 6 nM, PD-1 Fc 6 nM
Summary of the method: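 Compounds tested from 20 μM down to 0.001 μM (3-fold) against 6 nM PD-L1 His and 6 nM PD-1 Fc, 15 min room temperature incubation. Detection after 1 h at room temperature with Tb cryptate anti-6HIS and XL665 anti-human IgG reagents (mixture at 0.35 nM and 6.7 nM), HTRF signal.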

PD-L1 His protein / PD-1 Fc protein, sequence (Q9NZQ7 19-238 limits assumed): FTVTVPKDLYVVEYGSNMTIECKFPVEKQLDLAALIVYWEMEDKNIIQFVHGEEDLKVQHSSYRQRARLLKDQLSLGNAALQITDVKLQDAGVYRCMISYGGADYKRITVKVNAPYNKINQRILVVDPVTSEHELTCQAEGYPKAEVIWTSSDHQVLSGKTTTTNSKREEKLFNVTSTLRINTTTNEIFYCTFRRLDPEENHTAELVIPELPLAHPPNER

SMILES | pIC50
COC(=O)C[C@H](O)CNCc1nn2cc(-c3cccc(-c4cccc(-c5ccc(CNC[C@@H]6CCC(=O)N6)c(OC)n5)c4Cl)c3Cl)cc2c(=O)n1C [Example 489, Methyl (3S)-4-[[6-[2-chloro-3-[2-chloro-3-[6-methoxy-5-[[[(2S)-5-oxopyrrolidin-2-yl]methylamino]methyl]-2-pyridyl]phenyl]phenyl]-3-methyl-4-oxo-pyrrolo[2,1-f][1,2,4]triazin-2-yl]methylamino]-3-hydroxy-butanoate] | 5.82
COc1nc(-c2cccc(-c3cccc(-c4cc5c(=O)n(C)c(CNCCCF)nn5c4)c3Cl)c2Cl)cc(Cl)c1CNC[C@@H]1CCC(=O)N1 [Example 490, (S)-6-(2,2′-Dichloro-3′-(4-chloro-6-methoxy-5-((((5-oxopyrrolidin-2-yl)methyl)amino)methyl)pyridin-2-yl)-[1,1′-biphenyl]-3-yl)-2-(((3-fluoropropyl)amino)methyl)-3-methylpyrrolo[2,1-f][1,2,4]triazin-4(3H)-one] | 10.00
COc1nc(-c2cccc(-c3cccc(-c4cc5c(=O)n(C)c(CNCCO)nn5c4)c3Cl)c2Cl)cc(Cl)c1CNC[C@@H]1CCC(=O)N1 [Example 491, (S)-6-(2,2′-Dichloro-3′-(4-chloro-6-methoxy-5-((((5-oxopyrrolidin-2-yl)methyl)amino)methyl)pyridin-2-yl)-[1,1′-biphenyl]-3-yl)-2-(((2-hydroxyethyl)amino)methyl)-3-methylpyrrolo[2,1-f][1,2,4]triazin-4(3H)-one] | 9.15
COc1nc(-c2cccc(-c3cccc(-c4cc5c(=O)n(C)c(CN6CC(C)(O)C6)nn5c4)c3Cl)c2Cl)cc(Cl)c1CNC[C@@H]1CCC(=O)N1 [Example 492, (S)-6-(2,2′-Dichloro-3′-(4-chloro-6-methoxy-5-((((5-oxopyrrolidin-2-yl)methyl)amino)methyl)pyridin-2-yl)-[1,1′-biphenyl]-3-yl)-2-((3-hydroxy-3-methylazetidin-1-yl)methyl)-3-methylpyrrolo[2,1-f][1,2,4]triazin-4(3H)-one] | 9.22
COc1nc(-c2cccc(-c3cccc(-c4cc5c(=O)n(C)c(CNC[C@@H](O)CC(=O)O)nn5c4)c3Cl)c2Cl)ccc1CNC[C@@H]1CCC(=O)N1 [Example 493, (3S)-4-[[6-[2-Chloro-3-[2-chloro-3-[6-methoxy-5-[[[(2S)-5-oxopyrrolidin-2-yl]methylamino]methyl]-2-pyridyl]phenyl]phenyl]-3-methyl-4-oxo-pyrrolo[2,1-f][1,2,4]triazin-2-yl]methylamino]-3-hydroxy-butanoic acid] | 10.00
COc1nc(-c2cccc(-c3cccc(-c4ccc(CN5CCCC[C@H]5C(=O)O)c(OC)n4)c3Cl)c2Cl)ccc1CNC[C@@H]1CCC(=O)N1 [Example 494, (S)-1-((6-(2,2′-Dichloro-3′-(6-methoxy-5-(((((S)-5-oxopyrrolidin-2-yl)methyl)amino)-methyl)pyridin-2-yl)-[1,1′-biphenyl]-3-yl)-2-methoxypyridin-3-yl)methyl)piperidine-2-carboxylic acid] | 10.00
COC(=O)C(C)(C)CNCc1nn2cc(-c3cccc(-c4cccc(-c5ccc(CNC[C@@H]6CCC(=O)N6)c(OC)n5)c4Cl)c3Cl)cc2c(=O)n1C [Example 495, Methyl 3-[[6-[2-chloro-3-[2-chloro-3-[6-methoxy-5-[[[(2S)-5-oxopyrrolidin-2-yl]methylamino]methyl]-2-pyridyl]phenyl]phenyl]-3-methyl-4-oxo-pyrrolo[2,1-f][1,2,4]triazin-2-yl]methylamino]-2,2-dimethyl-propanoate] | 9.15
COc1nc(-c2cccc(-c3cccc(-c4cc5c(=O)n(C)c(CNCCC(F)F)nn5c4)c3Cl)c2Cl)ccc1CNC[C@@H]1CCC(=O)N1 [compound 465, (S)-6-(2,2′-Dichloro-3′-(6-methoxy-5-((((5-oxopyrrolidin-2-yl)methyl)amino)methyl)pyridin-2-yl)-[1,1′-biphenyl]-3-yl)-2-(((3,3-difluoropropyl)amino)methyl)-3-methylpyrrolo[2,1-f][1,2,4]triazin-4(3H)-one] | 7.85
COc1nc(-c2cccc(-c3cccc(-c4cc5c(=O)n(C)c(CNC6CC(C)(O)C6)nn5c4)c3Cl)c2Cl)cc(F)c1CNC[C@@H]1CCC(=O)N1 (stereo partly drawn) [compound 480, (S)-6-(2,2′-dichloro-3′-(4-fluoro-6-methoxy-5-((((5-oxopyrrolidin-2-yl)methyl)amino)methyl)pyridin-2-yl)-[1,1′-biphenyl]-3-yl)-2-(((3-hydroxy-3-methylcyclobutyl)amino)methyl)-3-methylpyrrolo[2,1-f][1,2,4]triazin-4(3H)-one] | 7.16
